1 compound from patent publication US10954325B2, “Raft agents and their use in the development of polyvinylpyrrolidone grafted nanoparticles” (UNIVERSITY OF SOUTH CAROLINA, priority 2014, dated 2021) can be followed below.

Assay [1] deals with MRSA-252, HA-MRSA, CA-MRSA and MSSA. Briefly: Disk diffusion assay, result stated over the tested strains together. The following applies: when physically bound to the PVP grafted silica nanoparticles; against MRSA. The class given is cell-based, Staphylococcus aureus. From the text:
(§1) The PVP grafted nanoparticles were employed to non-covalently attach the antibiotic penicillin-G (PenG) and tested for activity against bacteria. Methicillin-resistant Staphylococcus aureus (MRSA)-252, HA-MRSA, CA-MRSA and methicillin-sensitive Staphylococcus aureus (MSSA) were selected as the target bacteria. A control group of free PenG with the same dose was used for the disk diffusion assay of PenG-nanoparticle complex. […] Without wishing to be bound by any particular theory, it is believed that the enhanced inhibition activity was due to the locally high concentrations of antibiotics physically attached to PVP grafted nanoparticles, which overwhelms the bacterial resistance. The small size PVP grafted nanoparticles with controllable surface attached polymer chain lengths offers a significant vehicle to restore antibiotics activities.
(§2) Bacteria Strains: MRSA 252 (ATCCBAA-1720); Staphylococcus aureus ATCC 29213 (community acquired-MRSA); Staphylococcus aureus ATCC BAA 1717 (hospital associated-MRSA); MSSA ATCC BAA 1718. These bacterial strains were grown at 37° C. in tryptic soy broth for 24 hours.
(§3) Preparation of Nanoparticle-PenG Complex: To prepare the nanoparticle-PenG complex, 15 μL of PVP grafted silica nanoparticles solution (26.65 mg/ml) and 1.85 mL DI water were mixed. 200 μL Penicillin G sodium salt aqueous solution (1 mg/mL) was added and incubated at 24° C. […]
A general note: In agar diffusion tests the substance spreads into inoculated agar from a disc or well.

For assay [2], the system named is MRSA 252 (ATCCBAA-1720). Briefly: Disk diffusion assay, MRSA 252. The class given is cell-based, Staphylococcus aureus. The following applies: at low doses.
Source text: as §1, §2, §3

In the case of `CC1(C)S[C@@H]2[C@H](NC(=O)Cc3ccccc3)C(=O)N2[C@H]1C(=O)[O-].[Na+]` [free penicillin-G, penicillin-G], in assay [1], the “activity of antibiotic over MRSA” value is “significantly increased”. Moreover, the “inhibition activity (disk diffusion)” value in assay [2] is listed as “completely ineffective”.
